# Patent US8486974B2 (priority 2007, dated 2013)
# pIC50: −log10 of the molar value.
# Legend:
# [1] = Hydrolysis and aspirin release in buffered human plasma solution (HPLC); conditions: for aspirin production / aspirin produced: 50% human plasma
# [2] = cited from earlier work
# [3] = human, 2.4 µM, pH 7.4
# [4] = molecular target: horse plasma butyrylcholinesterase (Equus caballus, UniProt P81908); conditions: cited from earlier work
# [5] = test system: GPIIb/IIIa; assay: Flow cytometry of activated GPIIb/IIIa (PAC-1) on platelets; type: cell-based, human
# Method: In order to analyze receptor expression on the surface of individual platelets and to minimize platelet activation caused by sample preparation procedures, no stirring or vortexing steps were used. The abundance of activated GPIIb/IIIa and P-selectin on the surface of platelets in the presence and absence of inhibitors was measured by flow cytometry. Platelet samples were first activated with agonists either collagen or ADP. When platelet aggregation reached 50% maximal light transmission the reaction was terminated by 10-fold dilution with physiologic saline. Resting platelets were used as control. In most of the experiments, platelets were preincubated with inhibitors for 10 min prior to the addition of agonists. Platelet samples were then incubated in the dark without stirring for 5 min at room temperature in the presence of saturating concentrations (10 μg/ml) of P-selectin (CD62P-APC). The activated GPIIb/IIIa platelet receptors were measured using PAC-1 monoclonal antibody at the same concentration as above. PAC-1 specifically recognizes an epitope on the high-affinity GPIIb/IIIa complex of activated platelets at or near the […]. Following incubation, samples were diluted in FACS Flow fluid and analyzed within 5 min using a BD FACSArray (BD Biosciences, Oxford, UK). Flow cytometry was performed on single stained platelet samples as described before^3. The instrument was set up to measure the size (forward scatter), granularity (side scatter) and cell fluorescence. A two-dimensional analysis gate of forward and side scatter was drawn in order to include single platelets and exclude platelet aggregates and microparticles. Antibody binding was measured by analyzing individual platelets for fluorescence. The mean fluorescence intensity was determined after correction for cell autofluorescence. For each sample, the fluorescence was analyzed using a logarithmic scale. Fluorescence histograms were obtained for 10,000 individual events. Data were analyzed using Cytometer RXP software and expressed as a percentage of control fluorescence in arbitrary units.
# [6] = test system: platelet aggregation in human whole blood; assay: Whole blood aggregation studies (impedance method); type: cell-based; conditions: Homo sapiens, Platelet; arachidonic acid; impedance method; read-out: IC50, platelet aggregation towards arachidonic acid in human whole blood
# Method: A 500 μl aliquot of blood was mixed with 500 μl of physiological saline and allowed to incubate at 37° C. for 10 mins in the incubation well of a Chrono-Log Whole Blood Aggregometer model 591/592. The sample was then transferred to the assay well, baseline was established and appropriate volume of reagent as above was added. Aggregation was monitored over 6 mins with impedance output recorded on a chart recorder. When testing inhibitors whole blood was pre-incubated with appropriate concentrations of inhibitor in DMSO at 37° C. for a specified length of time before adding the stimulant (10 mins with stirring). Three different aggregating agents, AA (0.5 mM), ADP (10 μM) and Collagen (5 μg/ml) were used. […] DMSO in high concentrations (above 0.25%) can induce a concentration dependent change in platelet cytoplasmic ionised calcium. Before each experiment a control was run using PRP to obtain normal aggregating responses. A sample was also incubated for 10 min at 37° C. with 10 μl DMSO to ensure it was having no inhibitory effect on the aggregation response.
# [7] = test system: human platelet aggregation to arachidonic acid; assay: Human platelet aggregation to arachidonic acid in platelet rich plasma; type: cell-based; conditions: Homo sapiens, platelet rich plasma
# Method: (§1) Blood was collected from healthy volunteers who had not taken any drugs known to affect platelet function for at least 14 days prior to the study. Platelet rich plasma (PRP) and washed platelet suspensions (2.5×10^8 platelets/ml) were prepared from blood as previously described.
# (§2) Platelet aggregation was measured by light aggregometry as previously described. Briefly, PRP and washed platelet samples (2.5×10^8/ml) were placed in a whole blood ionized calcium lumi-aggregometer (Chronolog Corp., Havertown, Pa., U.S.A), and (BIO/DATA CORPORATION) and incubated for 10 min at 37° C., with stirring at 900 r.p.m., prior to the addition of aggregating agents. Aggregation was initiated by the addition of agonists, and monitored by Aggro-Link software for at least 6 min. For experiments using inhibitors, aggregation was initiated after 10 min preincubation with these compounds
# [8] = in vivo; cited from earlier work
# [9] = molecular target: T1, purified human serum BuChE (Homo sapiens, UniProt P06276); assay: Hydrolysis by purified human serum butyrylcholinesterase; type: in vitro ADME; conditions: Purified human serum (0.15 mg/ml); conc drug 0.12 mM
# T1 construct: Purified human serum butyrylcholinesterase (EC 3.1.1.8); purchased Sigma-Aldrich; host or cells: human serum
# T1 sequence (P06276 29-602): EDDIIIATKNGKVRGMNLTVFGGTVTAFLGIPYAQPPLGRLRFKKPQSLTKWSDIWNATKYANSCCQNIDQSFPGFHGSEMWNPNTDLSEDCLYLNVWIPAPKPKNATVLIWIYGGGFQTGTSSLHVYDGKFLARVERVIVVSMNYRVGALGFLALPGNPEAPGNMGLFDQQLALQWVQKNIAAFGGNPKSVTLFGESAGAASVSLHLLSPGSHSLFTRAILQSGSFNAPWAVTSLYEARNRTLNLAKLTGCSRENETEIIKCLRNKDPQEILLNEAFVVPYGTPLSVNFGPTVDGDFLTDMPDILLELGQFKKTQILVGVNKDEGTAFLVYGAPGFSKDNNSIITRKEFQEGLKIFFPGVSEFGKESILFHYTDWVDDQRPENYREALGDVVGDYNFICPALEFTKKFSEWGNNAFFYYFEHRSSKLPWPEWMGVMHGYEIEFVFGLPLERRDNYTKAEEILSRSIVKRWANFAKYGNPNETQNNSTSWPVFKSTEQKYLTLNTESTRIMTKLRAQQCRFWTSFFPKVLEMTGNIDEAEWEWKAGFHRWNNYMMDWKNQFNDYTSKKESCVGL
# Method: Pooled plasma/serum solutions (4 ml) were prepared to the correct strength by dilution of plasma with phosphate buffer pH 7.4 (e.g. for a 10% solution 0.4 ml of plasma/serum was added to 3.6 ml of phosphate buffer pH 7.4). Following equilibration of the plasma/serum sample at 37±0.5° C. 100 μl of a stock solution of test compound in acetonitrile (1×10^−4 M) was added and 250 μl aliquots were removed at specified time intervals. Samples were transferred to 1.5 ml Eppendorf tubes containing 500 μl of a 2% w/v solution of nSO4.7H2O (water:acetonitrile, 1:1). Tubes were vortexed for 2 minutes, then centrifuged at 10,000 rpm for 3 minutes at room temperature. Supernatant was aspirated off and analysed by HPLC. The concentration of test compound and metabolites were determined with reference to calibration curves run on that day in the same concentration range and under the same experimental conditions. In order to mimic conditions during the first passage of the drugs after intestinal absorption selected compounds were incubated in phosphate buffer at 37° C. in the presence of microsomes from human liver (HLM) and intestinal epithelium (HIM). The metabolic fate of the esters under these conditions was also determined by RPHPLC by measuring the concentration of drug and metabolites in the medium as a function of time. The identity of participating enzymes was confirmed by using purified enzyme in the case of plasma (BuChE) and by repeating the hydrolysis experiments in the presence of esterase specific inhibitors—isoOMPA for BuChE and BNPP for carboxylesterase. The BuChE activity of plasma and microsomal samples was determined using the Ellman assay (Ellman et al., 1964).
# [10] = test system: collagen-induced human platelet aggregation; assay: Collagen-induced human platelet aggregation in vitro; type: cell-based
# Method: as §1, §2
# (§3) Collagen at different concentrations (3-5 ug/ml) was also used to induce platelet aggregation. The submaximal concentrations of agonists, i.e. the concentrations that gave approximately 95% of the maximal aggregation were used to study the effects of inhibitors of aggregation. Results were expressed in percent changes in maximal light transmission, with 100% representing light transmission of platelet medium alone.
# [11] = test system: ADP-induced platelet aggregation; assay: ADP-induced platelet aggregation in PRP; type: cell-based, human
# Method: as §1, §2, §3
# [12] = phosphate buffered human plasma solutions (Gilmer et al., 2002)
# horse plasma butyrylcholinesterase, sequence (P81908 whole entry): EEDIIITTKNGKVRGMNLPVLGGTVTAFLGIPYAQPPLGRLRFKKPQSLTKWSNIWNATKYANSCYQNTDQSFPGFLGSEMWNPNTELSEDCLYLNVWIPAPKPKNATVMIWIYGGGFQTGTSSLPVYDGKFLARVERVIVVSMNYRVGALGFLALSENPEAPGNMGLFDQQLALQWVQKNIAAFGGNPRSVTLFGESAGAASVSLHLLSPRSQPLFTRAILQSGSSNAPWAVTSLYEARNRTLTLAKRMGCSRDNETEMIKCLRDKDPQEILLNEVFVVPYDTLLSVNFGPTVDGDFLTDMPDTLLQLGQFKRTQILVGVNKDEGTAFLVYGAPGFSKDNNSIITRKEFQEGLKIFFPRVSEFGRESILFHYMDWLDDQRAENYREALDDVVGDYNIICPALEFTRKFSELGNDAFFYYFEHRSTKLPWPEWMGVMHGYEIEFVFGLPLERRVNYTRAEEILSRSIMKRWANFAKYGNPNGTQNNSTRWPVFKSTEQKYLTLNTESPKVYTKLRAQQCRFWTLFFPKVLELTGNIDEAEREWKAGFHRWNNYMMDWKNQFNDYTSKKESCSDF
compound,measurement,setting,value
"CC(=O)Oc1ccccc1C(=O)O[C@@H]1CO[C@H]2[C@@H]1OC[C@@H]2O [Compound 5-aspirinate, isosorbide-5-aspirinate, reference compound]",acts as aspirin prodrug in human plasma,[1]; human plasma,None of these acted as aspirin prodrugs
"CC(=O)Oc1ccccc1C(=O)O[C@H]1CO[C@H]2[C@@H]1OC[C@H]2OC(=O)c1ccccc1OC(C)=O [Compound 16, Isosorbide-di-aspirinate]",aspirin produced in phosphate buffered human plasma solutions,[2]; [12],approximately 60%
same,hydrolysed along the unproductive salicylate pathway,[2]; [12],40%
same,hydrolysis along unproductive salicylate pathway,[3],40%
same,aspirin generated,[4],11%
"CC(=O)Oc1ccccc1C(=O)O[C@H]1CO[C@H]2[C@@H]1OC[C@H]2O [Compound 17, Isosorbide-2-aspirinate-5-OH, reference compound]",molar % aspirin released in 10% human plasma,"[1]; 10% human plasma, pH 7.4, 37° C., peak aspirin as percentage of initial ester concentration in moles",2.95%
same,Half-life in 10% human plasma,"[1]; 10% human plasma, phosphate buffer pH 7.4, 37° C.",4.08 min
same,acts as aspirin prodrug in human plasma,[1]; human plasma,is not an aspirin prodrug
same,acts as aspirin prodrug in human plasma,"[1]; human plasma, listed as 2-aspirinate",None of these acted as aspirin prodrugs
CC(=O)Oc1ccccc1C(=O)O [aspirin],constitutive platelet glyco-protein expression,[5]; concentrations at which aspirin has no effect,has no effect
same,inhibition of platelets activation,[5]; same concentration like ISAS (2) or nitrate compounds 31-32,failed to inhibit platelets activation
same,pIC50,[6],4.60
same,half-life in dilute plasma,[2]; dilute plasma,around one
same,pIC50,[7],5.30
same,half-life in the body,[8],20 min
Isosorbide-2-aspirinate-5-(2-nitrooxy-methyl)benzoate [Compound 31],aspirin production,[1],10.3 µM
same,aspirin produced,[1]; drug 1×10^−4 M,10.3 µM
Isosorbide-2-aspirinate-5-(3-nitrooxy-methyl)benzoate [Compound 32],Aspirin,[9],15 µM
same,Drug disappearace,[9],10 min
same,Salicylic acid,[9],6 µM
same,Aspirin,"[1]; 50% HP, conc drug 0.25 mM",26 µM
same,Salicylic acid,"[1]; 50% HP, conc drug 0.25 mM",18 µM
same,aspirin production,[1],26 µM
same,aspirin produced,[1]; drug 2.5×10^−4 M,26 µM
same,Salicylic acid,"[1]; 80% HP, conc drug 0.1 mM",9 µM
Isosorbide-2-aspirinate-5-(4-nitrooxy-methyl) benzoate [Compound 33],aspirin production,[1],2 µM
same,aspirin produced,[1]; drug 1×10^−4 M,2 µM
Isosorbide-2-aspirinate-5-(p-cyanobenzoate) [Compound 20],"potency relative to aspirin, inhibition of collagen-induced human platelet aggregation",[10],more potent than aspirin
same,"potency relative to aspirin, inhibition of ADP-induced platelet aggregation",[11],more potent inhibitor
Isosorbide-2-aspirinate-5-[2-methylbenzoate] [Compound 1],aspirin release (hydrolysis along the aspirin pathway) in human plasma,[1]; human plasma,around 60%
